This note sets out measurements from patent US9976141B2, “Compositions and methods for inhibiting gene expression of Hif2alpha” (Arrowhead Madison Inc., priority 2015, dated 2018).

Strand notation (5' to 3'): a small letter for the sugar, then the base; units joined by * are phosphorothioate-linked, units joined directly phosphodiester-linked; [ ] holds rarer units or linkages, { } end groups; capitals alone tell only the bases. d = 2'-deoxy (DNA); m = 2'-O-methyl; f = 2'-fluoro

The test system of this data set is human EPAS1 (Hif2α) cDNA in psiCHECK2 (Renilla luciferase/EPAS1 fusion mRNA) in Hep3B cells. Briefly: Efficacy screen of Hif2α RNAi triggers in vitro, dual-luciferase reporter assay (1 nM and 0.1 nM). Format: cell-based. The note with it: Hep3B cells co-transfected with EPAS1-psiCHECK2, Renilla luciferase normalized to firefly luciferase. A digest of the protocol: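 Knockdown read by dual-luciferase assay: Renilla signal from the Renilla/EPAS1 fusion transcript divided by firefly luciferase expressed from the same plasmid. Triggers (modified canonical siRNAs, 1 nM or 0.1 nM) were co-transfected with 25 ng reporter plasmid per well into human hepatocellular carcinoma Hep3B cells.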
For orientation: A reporter such as luciferase makes a cellular process visible.

For the substance “2345 (sense fCmCfAmAfCmGfUmAfUmGfUmGfGmUfUmAfUmCfAdT; antisense dTfGmAfUmAfAmCfCmAfCmAfUmAfCmGfUmUfGmGdT*dT; siRNA) [compound 2345]”, the “Relative Rluc-Hif2α” value is, setting by setting: (0.1 nM RNAi trigger) 0.296 ± 0.096; (1 nM RNAi trigger) 0.129 ± 0.026.

Turning to “2303 (sense fGmAfUmGfCmCfGmGfAmAfGmCfAmAfAmGfCmAfAdT; antisense dTfUmGfCmUfUmUfGmCfUmUfCmCfGmGfCmAfUmCdT*dT; siRNA) [compound 2303]”, the “Relative Rluc-Hif2α” value is recorded as 0.414 ± 0.002 (0.1 nM RNAi trigger) and 0.294 ± 0.034 (1 nM RNAi trigger).

On to “2341 (sense fUmCfAmAfCmUfCmCfAmAfCmGfUmAfUmGfUmGfAdT; antisense dTfCmAfCmAfUmAfCmGfUmUfGmGfAmGfUmUfGmAdT*dT; siRNA) [compound 2341]”, for which the “Relative Rluc-Hif2α” value by setting is: (0.1 nM RNAi trigger) 0.378 ± 0.116; (1 nM RNAi trigger) 0.202 ± 0.018.

Turning to “2398 (sense fCmCfCmUfAmCfCmUfGmUfCmAfAmCfGmUfAmAfAdT; antisense dTfUmUfAmCfGmUfUmGfAmCfAmGfGmUfAmGfGmGdT*dT; siRNA) [compound 2398]”, the “Relative Rluc-Hif2α” value (0.1 nM RNAi trigger) is recorded as 1.047 ± 0.047 and the “Relative Rluc-Hif2α” value (1 nM RNAi trigger) was 0.534 ± 0.043.

In the case of “2270 (sense fUmGfAmAfUmUfCmUfAmCfCmAfUmGfCmGfCmUfAdT; antisense dTfAmGfCmGfCmAfUmGfGmUfAmGfAmAfUmUfCmAdT*dT; siRNA) [compound 2270]”, the “Relative Rluc-Hif2α” value runs as follows: (0.1 nM RNAi trigger) 0.658 ± 0.149; (1 nM RNAi trigger) 0.613 ± 0.147.

With “2322 (sense fGmGfAmCfAmAfGmCfCmAfCmUfGmAfGmCfGmCfAdT; antisense dTfGmCfGmCfUmCfAmGfUmGfGmCfUmUfGmUfCmCdT*dT; siRNA) [compound 2322]”, the “Relative Rluc-Hif2α” value (0.1 nM RNAi trigger) stood at 0.468 ± 0.012 and the “Relative Rluc-Hif2α” value (1 nM RNAi trigger) was determined as 0.306 ± 0.059.

In the case of “2283 (sense fAmGfCmAfUmGfGmGfGmGfCmUfAmCfGmUfGmUfAdT; antisense dTfAmCfAmCfGmUfAmGfCmCfCmCfCmAfUmGfCmUdT*dT; siRNA) [compound 2283]”, the “Relative Rluc-Hif2α” value worked out at 1.175 ± 0.194 (0.1 nM RNAi trigger) and 0.882 ± 0.026 (1 nM RNAi trigger).

On to “2307 (sense fAmGfAmUfCmCfAmCfCmAfUmUfAmCfAmUfUmUfAdT; antisense dTfAmAfAmUfGmUfAmAfUmGfGmUfGmGfAmUfCmUdT*dT; siRNA) [compound 2307]”, for which the “Relative Rluc-Hif2α” value (0.1 nM RNAi trigger) worked out at 0.800 ± 0.248 and the “Relative Rluc-Hif2α” value (1 nM RNAi trigger) was 0.702 ± 0.142.

On to “2365 (sense fCmUfGmAfUmGfGmCfAmCfGmUfUmGfUmGfGmGfAdT; antisense dTfCmCfCmAfCmAfAmCfGmUfGmCfCmAfUmCfAmGdT*dT; siRNA) [compound 2365]”, for which the “Relative Rluc-Hif2α” value was found to be 1.132 ± 0.107 (0.1 nM RNAi trigger) and 1.259 ± 0.247 (1 nM RNAi trigger).

Regarding “2316 (sense fGmCfUmCfGmAfGmGfCmCfCmAfGmAfCmGfUmGfAdT; antisense dTfCmAfCmGfUmCfUmGfGmGfCmCfUmCfGmAfGmCdT*dT; siRNA) [compound 2316]”, the “Relative Rluc-Hif2α” value is recorded as 0.797 ± 0.211 (0.1 nM RNAi trigger) and 0.579 ± 0.055 (1 nM RNAi trigger).

In the case of “2400 (sense fCmUfAmCfCmUfGmUfCmAfAmCfGmUfAmAfCmGfAdT; antisense dTfCmGfUmUfAmCfGmUfUmGfAmCfAmGfGmUfAmGdT*dT; siRNA) [compound 2400]”, the “Relative Rluc-Hif2α” value is, setting by setting: (0.1 nM RNAi trigger) 0.478 ± 0.028; (1 nM RNAi trigger) 0.165 ± 0.020.

As to “2329 (sense fCmUfGmAfCmCfAmGfAmUfAmUfGmAfCmUfGmUfAdT; antisense dTfAmCfAmGfUmCfAmUfAmUfCmUfGmGfUmCfAmGdT*dT; siRNA) [compound 2329]”, the “Relative Rluc-Hif2α” value (0.1 nM RNAi trigger) was determined as 0.807 ± 0.117 and the “Relative Rluc-Hif2α” value (1 nM RNAi trigger) was 0.456 ± 0.064.

Regarding “2269 (sense fAmUfGmAfAmUfUmCfUmAfCmCfAmUfGmCfGmCfAdT; antisense dTfGmCfGmCfAmUfGmGfUmAfGmAfAmUfUmCfAmUdT*dT; siRNA) [compound 2269]”, the “Relative Rluc-Hif2α” value (0.1 nM RNAi trigger) was 0.530 ± 0.097 and the “Relative Rluc-Hif2α” value (1 nM RNAi trigger) came out at 0.302 ± 0.080.

As to “2248 (sense fCmUfAmAfCmAfGmGfAmCfAmUfAmGfUmAfUmCfAdT; antisense dTfGmAfUmAfCmUfAmUfGmUfCmCfUmGfUmUfAmGdT*dT; siRNA) [compound 2248]”, the “Relative Rluc-Hif2α” value (0.1 nM RNAi trigger) was 0.215 ± 0.007 and the “Relative Rluc-Hif2α” value (1 nM RNAi trigger) is listed as 0.148 ± 0.036.

With “2358 (sense fAmCfAmAfUmCfCmGfAmGfCmAfGmUfGmGfAmGfAdT; antisense dTfCmUfCmCfAmCfUmGfCmUfCmGfGmAfUmUfGmUdT*dT; siRNA) [compound 2358]”, the “Relative Rluc-Hif2α” value runs as follows: (0.1 nM RNAi trigger) 0.647 ± 0.113; (1 nM RNAi trigger) 0.731 ± 0.123.

As for “2390 (sense fAmCfUmAfUmUfUmAfGmUfAmAfGmCfCmCfGmGfAdT; antisense dTfCmCfGmGfGmCfUmUfAmCfUmAfAmAfUmAfGmUdT*dT; siRNA) [compound 2390]”, the “Relative Rluc-Hif2α” value is reported as 0.772 ± 0.175 (0.1 nM RNAi trigger) and 0.568 ± 0.108 (1 nM RNAi trigger).

Regarding “2402 (sense fAmCfCmUfGmUfCmAfAmCfGmUfAmAfCmGfAmUfAdT; antisense dTfAmUfCmGfUmUfAmCfGmUfUmGfAmCfAmGfGmUdT*dT; siRNA) [compound 2402]”, the “Relative Rluc-Hif2α” value (0.1 nM RNAi trigger) stood at 0.389 ± 0.060 and the “Relative Rluc-Hif2α” value (1 nM RNAi trigger) was determined as 0.128 ± 0.015.

As for “2404 (sense fCmUfGmUfCmAfAmCfGmUfAmAfCmGfAmUfUmUfAdT; antisense dTfAmAfAmUfCmGfUmUfAmCfGmUfUmGfAmCfAmGdT*dT; siRNA) [compound 2404]”, the “Relative Rluc-Hif2α” value runs as follows: (0.1 nM RNAi trigger) 0.234 ± 0.045; (1 nM RNAi trigger) 0.104 ± 0.019.

As to “2290 (sense fAmGfUmAfAmCfUmUfCmCfUmAfUmUfCmAfCmCfAdT; antisense dTfGmGfUmGfAmAfUmAfGmGfAmAfGmUfUmAfCmUdT*dT; siRNA) [compound 2290]”, the “Relative Rluc-Hif2α” value is 0.698 ± 0.155 (0.1 nM RNAi trigger) and 0.353 ± 0.036 (1 nM RNAi trigger).

For the substance “2319 (sense fCmUfUmUfGmAfUmGfCmCfGmGfAmCfAmAfGmCfAdT; antisense dTfGmCfUmUfGmUfCmCfGmGfCmAfUmCfAmAfAmGdT*dT; siRNA) [compound 2319]”, the “Relative Rluc-Hif2α” value is, setting by setting: (0.1 nM RNAi trigger) 0.454 ± 0.101; (1 nM RNAi trigger) 0.234 ± 0.055.

For the substance “2354 (sense fCmCfAmUfAmGfGmUfGmUfGmAfCmAfAmUfCmCfAdT; antisense dTfGmGfAmUfUmGfUmCfAmCfAmCfCmUfAmUfGmGdT*dT; siRNA) [compound 2354]”, the “Relative Rluc-Hif2α” value is 1.043 ± 0.239 (0.1 nM RNAi trigger) and 0.741 ± 0.189 (1 nM RNAi trigger).

Turning to “2246 (sense fGmAfGmCfUmAfAmCfAmGfGmAfCmAfUmAfGmUfAdT; antisense dTfAmCfUmAfUmGfUmCfCmUfGmUfUmAfGmCfUmCdT*dT; siRNA) [compound 2246]”, the “Relative Rluc-Hif2α” value reads like this: (0.1 nM RNAi trigger) 0.509 ± 0.044; (1 nM RNAi trigger) 0.327 ± 0.042.

“2236 (sense fCmAfGmGfUmGfCmUfCmGfGmCfGmUfCmUfGmAfAdT; antisense dTfUmCfAmGfAmCfGmCfCmGfAmGfCmAfCmCfUmGdT*dT; siRNA) [compound 2236]”: the “Relative Rluc-Hif2α” value reads like this: (0.1 nM RNAi trigger) 0.693 ± 0.071; (1 nM RNAi trigger) 0.761 ± 0.042.

Turning to “2231 (sense fGmAfGmAfCmUfGmUfAmUfGmGfUmCfAmGfCmUfAdT; antisense dTfAmGfCmUfGmAfCmCfAmUfAmCfAmGfUmCfUmCdT*dT; siRNA) [compound 2231]”, the “Relative Rluc-Hif2α” value (0.1 nM RNAi trigger) amounted to 0.544 ± 0.368 and the “Relative Rluc-Hif2α” value (1 nM RNAi trigger) turned out to be 0.491 ± 0.198.
